Data from ChEMBL document CHEMBL1201862, “PubChem BioAssay data set” (2004).
Values belong to the compound of their own block, whether it stands above or below them. Activity calls are given as the source filed them.

Experiments:
[1] = biological target: T1, Sentrin-specific protease 7 (Homo sapiens, UniProt Q9BQF6); assay: SENP7 protease inhibitors, SAR follow-up, biochemical, luminescence (AID 504497); format: functional
T1 sequence (Q9BQF6 whole entry): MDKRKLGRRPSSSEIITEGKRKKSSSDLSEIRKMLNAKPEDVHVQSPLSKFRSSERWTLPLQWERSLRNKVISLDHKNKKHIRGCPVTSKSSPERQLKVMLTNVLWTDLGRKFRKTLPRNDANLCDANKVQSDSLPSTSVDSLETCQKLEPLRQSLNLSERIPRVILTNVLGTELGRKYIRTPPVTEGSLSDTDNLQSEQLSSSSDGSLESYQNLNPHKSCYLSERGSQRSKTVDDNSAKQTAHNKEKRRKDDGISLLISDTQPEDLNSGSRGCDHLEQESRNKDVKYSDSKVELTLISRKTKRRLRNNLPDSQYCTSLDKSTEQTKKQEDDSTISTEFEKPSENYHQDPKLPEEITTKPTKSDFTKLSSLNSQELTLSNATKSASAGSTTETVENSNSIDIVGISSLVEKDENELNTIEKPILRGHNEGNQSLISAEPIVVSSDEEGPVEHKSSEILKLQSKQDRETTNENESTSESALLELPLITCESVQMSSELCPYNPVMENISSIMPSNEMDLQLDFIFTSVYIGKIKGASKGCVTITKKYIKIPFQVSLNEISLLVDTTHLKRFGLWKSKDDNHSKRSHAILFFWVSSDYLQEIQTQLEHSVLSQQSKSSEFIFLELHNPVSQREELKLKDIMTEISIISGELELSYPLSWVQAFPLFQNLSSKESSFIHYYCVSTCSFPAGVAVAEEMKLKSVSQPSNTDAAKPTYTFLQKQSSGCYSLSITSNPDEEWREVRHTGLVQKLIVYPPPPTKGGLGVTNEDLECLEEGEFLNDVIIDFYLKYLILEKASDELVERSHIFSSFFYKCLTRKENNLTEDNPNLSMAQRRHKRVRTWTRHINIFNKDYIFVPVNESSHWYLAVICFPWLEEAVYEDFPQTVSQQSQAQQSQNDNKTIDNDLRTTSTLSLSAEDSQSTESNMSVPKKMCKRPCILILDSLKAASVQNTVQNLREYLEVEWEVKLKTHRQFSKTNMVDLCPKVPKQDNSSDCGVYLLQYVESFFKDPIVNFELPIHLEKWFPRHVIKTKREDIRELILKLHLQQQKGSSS

[2] = biological target: T2, Sentrin-specific protease 6 (Homo sapiens, UniProt Q9GZR1); format: functional;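 further: Luminescence-based dose-response confirmatory assay of SENP6 inhibition, following up an ultra-high-throughput screen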
T2 sequence (Q9GZR1 whole entry): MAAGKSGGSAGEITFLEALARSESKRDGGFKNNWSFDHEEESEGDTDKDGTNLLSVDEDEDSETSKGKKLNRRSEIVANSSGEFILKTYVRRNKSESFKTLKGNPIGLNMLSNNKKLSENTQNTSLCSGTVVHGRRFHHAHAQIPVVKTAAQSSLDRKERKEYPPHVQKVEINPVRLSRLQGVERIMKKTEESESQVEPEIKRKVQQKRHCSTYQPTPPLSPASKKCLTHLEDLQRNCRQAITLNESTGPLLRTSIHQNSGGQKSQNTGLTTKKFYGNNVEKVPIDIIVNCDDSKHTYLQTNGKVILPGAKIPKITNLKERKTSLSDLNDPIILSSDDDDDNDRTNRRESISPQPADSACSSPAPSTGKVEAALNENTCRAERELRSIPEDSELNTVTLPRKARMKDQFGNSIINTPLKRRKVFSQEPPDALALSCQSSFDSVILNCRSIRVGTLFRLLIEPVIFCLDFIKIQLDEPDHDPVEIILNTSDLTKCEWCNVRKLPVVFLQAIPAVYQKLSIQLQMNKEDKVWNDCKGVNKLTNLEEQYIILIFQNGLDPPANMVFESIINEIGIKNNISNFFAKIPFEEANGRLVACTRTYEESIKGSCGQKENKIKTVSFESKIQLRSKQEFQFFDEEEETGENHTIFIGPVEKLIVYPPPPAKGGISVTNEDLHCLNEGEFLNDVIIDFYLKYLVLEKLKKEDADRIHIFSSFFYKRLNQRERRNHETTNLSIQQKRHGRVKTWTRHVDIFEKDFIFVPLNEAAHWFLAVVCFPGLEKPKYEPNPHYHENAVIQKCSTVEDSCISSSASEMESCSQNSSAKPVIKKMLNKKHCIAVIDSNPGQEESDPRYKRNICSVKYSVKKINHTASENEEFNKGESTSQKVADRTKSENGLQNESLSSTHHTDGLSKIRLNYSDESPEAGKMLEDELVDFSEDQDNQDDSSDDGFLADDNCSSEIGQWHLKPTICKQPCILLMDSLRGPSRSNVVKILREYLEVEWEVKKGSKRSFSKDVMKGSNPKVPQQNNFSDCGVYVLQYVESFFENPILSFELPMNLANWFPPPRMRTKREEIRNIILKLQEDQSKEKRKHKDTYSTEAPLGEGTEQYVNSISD

[3] = biological target: Death-associated protein kinase 3 (Homo sapiens, UniProt O43293); format: functional;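 further: measured as one member of a kinome-wide profiling panel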
[4] = biological target: Dual specificity mitogen-activated protein kinase kinase 2 (Homo sapiens, UniProt P36507); assay: Navigating the Kinome. Panel member name: MAP2K2; format: functional
[5] = biological target: cAMP-dependent protein kinase catalytic subunit PRKX (Homo sapiens, UniProt P51817); format: functional
[6] = biological target: Hepatocyte growth factor receptor (Homo sapiens, UniProt P08581); format: functional;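 further: kinase panel profiling across the kinome, with MET as the panel member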
[7] = biological target: Serine/threonine-protein kinase TAO1 (Homo sapiens, UniProt Q7L7X3); format: functional
[8] = biological target: Glycogen synthase kinase-3 alpha (Homo sapiens, UniProt P49840); format: functional;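 further: GSK3A result taken from a broad kinome-wide kinase panel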
[9] = biological target: Tyrosine-protein kinase JAK3 (Homo sapiens, UniProt P52333); format: functional
HEK293 = assay: optical interference in Abeta FP readout, dose response, artefact control for IDE activator project, biochemical, fluorescence polarization (AID 588442); format: functional, cell-based; details: Homo sapiens
[10] = Fluorescence polarization-based biochemical high throughput dose response assay for activators of the Protein Kinase A-R2B (PKA-R2B) complex. [Related pubchem assays (depositor defined):AID504700, AID504704, AID504796, AID504797]
Genome polyprotein = Genome polyprotein (dengue virus type 2, UniProt P29990); assay: Dengue-2 NS5 methyltransferase inhibitors, primary screen, biochemical, confirmation dose response (AID 588689); format: functional

Sequence of Hepatocyte growth factor receptor (P08581 whole entry): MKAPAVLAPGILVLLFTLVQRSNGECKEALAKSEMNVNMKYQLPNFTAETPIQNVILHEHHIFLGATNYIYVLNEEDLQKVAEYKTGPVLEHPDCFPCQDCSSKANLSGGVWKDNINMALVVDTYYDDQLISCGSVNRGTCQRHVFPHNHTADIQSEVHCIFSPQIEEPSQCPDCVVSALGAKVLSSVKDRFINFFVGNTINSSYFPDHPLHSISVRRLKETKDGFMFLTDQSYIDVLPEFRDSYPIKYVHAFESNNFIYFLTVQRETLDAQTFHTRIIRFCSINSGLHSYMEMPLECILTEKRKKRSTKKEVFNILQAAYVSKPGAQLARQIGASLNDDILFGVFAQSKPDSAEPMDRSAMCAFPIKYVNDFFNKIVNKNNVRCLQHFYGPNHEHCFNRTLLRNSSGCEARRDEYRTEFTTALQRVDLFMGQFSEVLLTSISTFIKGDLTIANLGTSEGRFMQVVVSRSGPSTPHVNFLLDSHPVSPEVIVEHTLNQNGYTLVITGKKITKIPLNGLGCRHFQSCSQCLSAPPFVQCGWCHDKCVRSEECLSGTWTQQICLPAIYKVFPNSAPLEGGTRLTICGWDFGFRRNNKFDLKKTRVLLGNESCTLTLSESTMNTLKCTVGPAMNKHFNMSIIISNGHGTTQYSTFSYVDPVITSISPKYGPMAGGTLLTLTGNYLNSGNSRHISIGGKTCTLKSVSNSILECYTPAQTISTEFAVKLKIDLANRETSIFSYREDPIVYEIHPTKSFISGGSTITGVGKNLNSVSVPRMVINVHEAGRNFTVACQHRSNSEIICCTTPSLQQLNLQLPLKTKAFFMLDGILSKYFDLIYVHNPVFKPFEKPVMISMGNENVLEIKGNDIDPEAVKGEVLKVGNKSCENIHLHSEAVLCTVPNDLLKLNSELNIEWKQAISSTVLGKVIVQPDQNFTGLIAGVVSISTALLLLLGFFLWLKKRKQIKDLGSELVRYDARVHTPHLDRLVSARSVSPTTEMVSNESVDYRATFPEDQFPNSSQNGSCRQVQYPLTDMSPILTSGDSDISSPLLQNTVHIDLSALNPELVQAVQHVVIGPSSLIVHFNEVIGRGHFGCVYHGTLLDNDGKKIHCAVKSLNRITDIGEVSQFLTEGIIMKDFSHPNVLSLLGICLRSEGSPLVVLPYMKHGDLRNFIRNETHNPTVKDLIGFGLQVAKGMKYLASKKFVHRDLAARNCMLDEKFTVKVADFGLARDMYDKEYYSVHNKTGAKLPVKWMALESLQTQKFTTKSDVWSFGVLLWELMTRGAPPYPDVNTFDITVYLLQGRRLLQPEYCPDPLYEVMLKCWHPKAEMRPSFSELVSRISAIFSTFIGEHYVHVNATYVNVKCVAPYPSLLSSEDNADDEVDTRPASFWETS
Sequence of Serine/threonine-protein kinase TAO1 (Q7L7X3 whole entry): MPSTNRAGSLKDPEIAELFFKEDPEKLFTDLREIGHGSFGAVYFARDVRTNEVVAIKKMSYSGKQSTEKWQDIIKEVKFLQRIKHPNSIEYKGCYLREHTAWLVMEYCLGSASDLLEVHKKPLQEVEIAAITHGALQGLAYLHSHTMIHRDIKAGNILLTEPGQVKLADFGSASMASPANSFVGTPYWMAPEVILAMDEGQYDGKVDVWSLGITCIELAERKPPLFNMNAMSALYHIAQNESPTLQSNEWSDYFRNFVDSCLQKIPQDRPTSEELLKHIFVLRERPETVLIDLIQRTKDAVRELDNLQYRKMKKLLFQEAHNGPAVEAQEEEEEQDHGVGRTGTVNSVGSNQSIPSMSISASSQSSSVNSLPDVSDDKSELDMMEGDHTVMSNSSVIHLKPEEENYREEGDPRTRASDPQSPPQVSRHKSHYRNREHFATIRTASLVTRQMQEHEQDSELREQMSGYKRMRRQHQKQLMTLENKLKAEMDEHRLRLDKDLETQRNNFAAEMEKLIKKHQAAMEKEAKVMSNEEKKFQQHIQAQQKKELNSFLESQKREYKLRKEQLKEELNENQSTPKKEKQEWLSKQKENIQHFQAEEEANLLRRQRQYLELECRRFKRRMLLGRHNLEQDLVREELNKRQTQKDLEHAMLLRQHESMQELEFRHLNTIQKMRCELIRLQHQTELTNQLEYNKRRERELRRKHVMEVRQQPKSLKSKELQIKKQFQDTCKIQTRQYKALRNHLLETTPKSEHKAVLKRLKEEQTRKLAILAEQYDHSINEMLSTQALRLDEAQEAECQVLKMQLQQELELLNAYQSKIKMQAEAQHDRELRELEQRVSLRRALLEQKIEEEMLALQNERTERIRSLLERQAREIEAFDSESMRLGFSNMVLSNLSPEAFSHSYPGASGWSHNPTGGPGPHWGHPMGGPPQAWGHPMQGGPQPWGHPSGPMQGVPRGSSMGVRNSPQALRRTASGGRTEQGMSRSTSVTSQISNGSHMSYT
Sequence of Dual specificity mitogen-activated protein kinase kinase 2 (P36507 whole entry): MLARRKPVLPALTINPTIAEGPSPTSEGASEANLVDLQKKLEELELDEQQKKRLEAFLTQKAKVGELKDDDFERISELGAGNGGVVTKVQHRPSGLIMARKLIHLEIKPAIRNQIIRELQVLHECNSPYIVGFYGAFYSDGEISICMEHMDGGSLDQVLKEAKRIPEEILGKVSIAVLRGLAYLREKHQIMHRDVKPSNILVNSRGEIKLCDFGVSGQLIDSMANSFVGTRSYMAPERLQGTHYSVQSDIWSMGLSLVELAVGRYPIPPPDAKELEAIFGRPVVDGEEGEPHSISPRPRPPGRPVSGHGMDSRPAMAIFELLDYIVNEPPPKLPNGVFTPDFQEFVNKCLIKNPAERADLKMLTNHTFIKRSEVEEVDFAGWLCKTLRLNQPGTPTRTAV
Sequence of Glycogen synthase kinase-3 alpha (P49840 whole entry): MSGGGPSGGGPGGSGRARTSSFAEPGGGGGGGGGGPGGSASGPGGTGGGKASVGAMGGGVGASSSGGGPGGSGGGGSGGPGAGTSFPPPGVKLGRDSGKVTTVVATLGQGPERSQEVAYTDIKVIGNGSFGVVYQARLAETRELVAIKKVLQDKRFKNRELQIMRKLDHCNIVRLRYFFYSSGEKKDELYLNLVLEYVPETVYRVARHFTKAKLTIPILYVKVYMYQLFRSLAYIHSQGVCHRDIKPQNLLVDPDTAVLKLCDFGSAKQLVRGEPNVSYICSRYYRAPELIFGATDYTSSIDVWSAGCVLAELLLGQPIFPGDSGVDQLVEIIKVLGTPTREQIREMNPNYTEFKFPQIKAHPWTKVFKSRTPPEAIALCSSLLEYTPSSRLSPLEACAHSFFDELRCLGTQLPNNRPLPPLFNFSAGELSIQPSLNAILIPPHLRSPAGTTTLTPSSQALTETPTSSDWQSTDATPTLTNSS
Sequence of Tyrosine-protein kinase JAK3 (P52333 whole entry): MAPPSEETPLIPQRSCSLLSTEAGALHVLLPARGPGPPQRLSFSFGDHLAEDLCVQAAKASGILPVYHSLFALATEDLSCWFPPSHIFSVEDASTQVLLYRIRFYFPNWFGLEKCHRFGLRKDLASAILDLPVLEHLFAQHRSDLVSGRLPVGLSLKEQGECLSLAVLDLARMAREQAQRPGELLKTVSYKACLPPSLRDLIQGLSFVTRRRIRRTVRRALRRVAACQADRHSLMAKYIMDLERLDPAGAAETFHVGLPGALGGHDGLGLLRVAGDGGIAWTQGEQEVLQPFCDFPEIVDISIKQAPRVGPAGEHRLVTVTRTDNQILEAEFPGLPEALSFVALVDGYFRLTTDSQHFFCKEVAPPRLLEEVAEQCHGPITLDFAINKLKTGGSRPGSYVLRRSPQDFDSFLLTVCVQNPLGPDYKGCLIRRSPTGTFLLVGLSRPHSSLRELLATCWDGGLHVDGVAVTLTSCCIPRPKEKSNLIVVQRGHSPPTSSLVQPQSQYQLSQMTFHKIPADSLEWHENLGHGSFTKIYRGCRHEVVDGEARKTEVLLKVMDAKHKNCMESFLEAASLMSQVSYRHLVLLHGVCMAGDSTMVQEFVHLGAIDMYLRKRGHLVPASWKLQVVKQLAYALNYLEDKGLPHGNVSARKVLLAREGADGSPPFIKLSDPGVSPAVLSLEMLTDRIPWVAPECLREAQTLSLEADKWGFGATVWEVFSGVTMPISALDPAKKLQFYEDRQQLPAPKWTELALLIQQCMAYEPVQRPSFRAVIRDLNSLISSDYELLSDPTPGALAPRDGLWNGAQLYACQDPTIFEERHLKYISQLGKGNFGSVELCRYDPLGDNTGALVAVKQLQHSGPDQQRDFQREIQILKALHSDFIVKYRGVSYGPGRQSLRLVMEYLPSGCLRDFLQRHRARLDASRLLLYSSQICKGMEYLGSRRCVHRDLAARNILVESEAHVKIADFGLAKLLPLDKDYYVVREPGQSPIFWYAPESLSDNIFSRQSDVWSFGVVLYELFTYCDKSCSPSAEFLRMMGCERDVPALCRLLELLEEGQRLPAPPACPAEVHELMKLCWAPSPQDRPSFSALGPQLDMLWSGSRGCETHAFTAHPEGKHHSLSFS
Sequence of Death-associated protein kinase 3 (O43293 whole entry): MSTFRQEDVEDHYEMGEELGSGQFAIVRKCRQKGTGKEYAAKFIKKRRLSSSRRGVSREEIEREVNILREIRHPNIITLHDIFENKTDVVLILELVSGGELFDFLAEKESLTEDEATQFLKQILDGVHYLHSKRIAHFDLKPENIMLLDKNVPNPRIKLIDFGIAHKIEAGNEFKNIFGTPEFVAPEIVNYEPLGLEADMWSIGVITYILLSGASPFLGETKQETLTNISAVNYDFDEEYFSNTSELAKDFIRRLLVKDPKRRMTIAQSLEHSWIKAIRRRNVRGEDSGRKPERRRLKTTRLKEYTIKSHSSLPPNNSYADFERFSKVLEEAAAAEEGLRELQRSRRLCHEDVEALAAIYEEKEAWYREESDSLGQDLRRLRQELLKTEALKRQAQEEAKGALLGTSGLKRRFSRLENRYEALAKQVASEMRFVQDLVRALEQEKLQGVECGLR

IC50 [1]: 2.43 µM (active) | IC50 [2]: 1.81 µM (active)
SMILES: O=C(NNc1cc(N2CCCC2)nc(N2CCCC2)n1)c1ccc([N+](=O)[O-])cc1

Ki [4]: 0.794 µM (active) | Ki [5]: 1.26 µM (active) | Ki [6]: 0.316 µM (active) | Ki [7]: 6.31 µM (active) | Ki [8]: > 3.98 µM (inactive) | Ki [9]: > 5.01 µM (inactive)
SMILES: O=C(Cc1cccs1)Nc1nc2ccccc2s1
Ki [3]: 5.01 µM (active)

SMILES: O=S(=O)(O)c1cccc2c(N=Nc3ccc(O)c4ncccc34)cccc12
EC50 (HEK293): 5.53 µM (active) | EC50 [10]: > 114 µM (inactive) | IC50 (Genome polyprotein): 34.8 µM (active)
